Experimental data reported in ChEMBL document CHEMBL1201862, “PubChem BioAssay data set” (2004).
Active and inactive are the calls of the source.

Experiments:
[1] = target: T1, Calpain-2 catalytic subunit (Sus scrofa, UniProt P43367); experiment: pig calpain II inhibitor potency, dose response, biochemical, fluorogenic peptide substrate (AID 1420); format: functional
T1 sequence (P43367 whole entry): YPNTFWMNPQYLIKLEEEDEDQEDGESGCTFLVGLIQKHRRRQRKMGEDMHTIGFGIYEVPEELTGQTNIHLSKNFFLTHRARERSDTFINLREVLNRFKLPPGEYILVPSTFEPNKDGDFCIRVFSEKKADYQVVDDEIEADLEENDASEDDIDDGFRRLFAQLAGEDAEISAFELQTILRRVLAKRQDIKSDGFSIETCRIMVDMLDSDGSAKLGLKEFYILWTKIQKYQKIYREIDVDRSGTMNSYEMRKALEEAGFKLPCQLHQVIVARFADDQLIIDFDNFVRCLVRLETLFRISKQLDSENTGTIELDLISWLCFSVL

[2] = target: T2, Carboxy-terminal domain RNA polymerase II polypeptide A small phosphatase 1 (Homo sapiens, UniProt Q9GZU7); experiment: inhibitors of CTDSP1, concentration-response testing, biochemical assay, absorbance-based, actives from ultra-high-throughput screening (AID 540297); format: functional
T2 sequence (Q9GZU7 whole entry): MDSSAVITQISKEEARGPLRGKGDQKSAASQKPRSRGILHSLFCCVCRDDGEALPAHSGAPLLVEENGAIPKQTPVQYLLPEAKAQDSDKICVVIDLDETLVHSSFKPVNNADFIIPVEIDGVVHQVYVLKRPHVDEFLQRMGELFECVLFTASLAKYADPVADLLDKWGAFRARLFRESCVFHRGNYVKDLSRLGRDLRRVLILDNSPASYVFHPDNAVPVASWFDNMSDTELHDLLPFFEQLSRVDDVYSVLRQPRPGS

[3] = target: T3, Replicative DNA helicase DnaB (Mycobacterium tuberculosis, UniProt P9WMR3); experiment: DnaB intein splicing inhibitors, dose response, biochemical, cell-free fluorescence (AID 449749); format: functional
T3 sequence (P9WMR3 whole entry): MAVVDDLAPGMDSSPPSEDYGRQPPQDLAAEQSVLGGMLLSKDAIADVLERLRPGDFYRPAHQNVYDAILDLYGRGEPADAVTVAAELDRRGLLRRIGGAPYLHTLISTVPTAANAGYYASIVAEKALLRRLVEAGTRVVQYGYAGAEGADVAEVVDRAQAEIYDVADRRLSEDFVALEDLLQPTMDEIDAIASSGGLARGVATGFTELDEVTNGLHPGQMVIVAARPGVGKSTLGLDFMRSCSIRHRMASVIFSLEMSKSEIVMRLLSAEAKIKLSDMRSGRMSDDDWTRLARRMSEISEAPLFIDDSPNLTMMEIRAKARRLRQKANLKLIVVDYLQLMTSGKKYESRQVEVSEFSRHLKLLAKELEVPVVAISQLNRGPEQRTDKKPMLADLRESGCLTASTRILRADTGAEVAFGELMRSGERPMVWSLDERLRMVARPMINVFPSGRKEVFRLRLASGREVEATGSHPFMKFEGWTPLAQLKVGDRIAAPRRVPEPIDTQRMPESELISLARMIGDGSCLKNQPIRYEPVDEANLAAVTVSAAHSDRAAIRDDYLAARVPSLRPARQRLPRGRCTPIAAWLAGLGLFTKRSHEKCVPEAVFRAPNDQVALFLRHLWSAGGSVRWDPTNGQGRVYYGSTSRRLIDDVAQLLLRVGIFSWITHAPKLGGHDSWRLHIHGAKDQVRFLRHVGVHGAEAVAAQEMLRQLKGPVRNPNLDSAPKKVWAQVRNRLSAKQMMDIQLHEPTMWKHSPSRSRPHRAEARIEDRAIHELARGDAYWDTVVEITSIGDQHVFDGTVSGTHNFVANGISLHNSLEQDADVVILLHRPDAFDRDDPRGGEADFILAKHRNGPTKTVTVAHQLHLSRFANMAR

[4] = target: T4, Protein RecA (Mycobacterium tuberculosis, UniProt P9WHJ3); experiment: Fluorescence Cell-Free Homogeneous Dose Retest to Identify Inhibitors of RecA-Intein Splicing Activity. [Related pubchem assays (depositor defined):AID2097, AID2223, AID489010, AID492950]; format: functional
T4 sequence (P9WHJ3 whole entry): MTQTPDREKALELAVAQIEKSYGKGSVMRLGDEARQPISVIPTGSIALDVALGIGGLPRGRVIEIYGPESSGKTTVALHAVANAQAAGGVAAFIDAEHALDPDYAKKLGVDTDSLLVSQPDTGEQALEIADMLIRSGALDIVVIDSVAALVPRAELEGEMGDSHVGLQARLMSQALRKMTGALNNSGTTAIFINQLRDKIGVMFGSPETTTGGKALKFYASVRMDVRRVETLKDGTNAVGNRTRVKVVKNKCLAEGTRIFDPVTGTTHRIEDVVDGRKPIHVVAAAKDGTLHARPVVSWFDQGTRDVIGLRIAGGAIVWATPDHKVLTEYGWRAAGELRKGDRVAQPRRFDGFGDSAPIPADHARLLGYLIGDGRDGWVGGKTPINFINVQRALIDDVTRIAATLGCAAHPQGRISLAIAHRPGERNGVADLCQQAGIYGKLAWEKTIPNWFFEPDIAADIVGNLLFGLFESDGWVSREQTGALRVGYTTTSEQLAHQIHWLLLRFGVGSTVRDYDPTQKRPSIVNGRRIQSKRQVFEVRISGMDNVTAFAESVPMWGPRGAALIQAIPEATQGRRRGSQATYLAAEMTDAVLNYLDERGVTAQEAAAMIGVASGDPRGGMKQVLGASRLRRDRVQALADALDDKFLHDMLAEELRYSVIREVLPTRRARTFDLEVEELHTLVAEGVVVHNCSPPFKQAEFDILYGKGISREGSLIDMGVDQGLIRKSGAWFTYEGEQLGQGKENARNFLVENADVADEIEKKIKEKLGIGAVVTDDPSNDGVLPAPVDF

[5] = inhibitors of intracellular T. cruzi replication, confirmation, NIH3T3 host cells, beta-gal luminescence (AID 2044); format: functional, cell-based;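 note: intracellular parasites grown in NIH/3T3 mouse fibroblasts as host cells; luminescent beta-galactosidase reporter signal from transgenic T. cruzi replicating inside host cells; inhibitors lower the luminescence signal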
[6] = cytotoxicity toward NIH3T3 fibroblasts, dose response, counter-screen, cell-based, ATP luminescence, mouse fibroblasts (AID 2010); format: functional;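 note: cells exposed to compound for about 90 hours before reading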
[7] = target: Induced myeloid leukemia cell differentiation protein Mcl-1 (Homo sapiens, UniProt Q07820); format: functional
Chain of Induced myeloid leukemia cell differentiation protein Mcl-1 (Q07820 whole entry): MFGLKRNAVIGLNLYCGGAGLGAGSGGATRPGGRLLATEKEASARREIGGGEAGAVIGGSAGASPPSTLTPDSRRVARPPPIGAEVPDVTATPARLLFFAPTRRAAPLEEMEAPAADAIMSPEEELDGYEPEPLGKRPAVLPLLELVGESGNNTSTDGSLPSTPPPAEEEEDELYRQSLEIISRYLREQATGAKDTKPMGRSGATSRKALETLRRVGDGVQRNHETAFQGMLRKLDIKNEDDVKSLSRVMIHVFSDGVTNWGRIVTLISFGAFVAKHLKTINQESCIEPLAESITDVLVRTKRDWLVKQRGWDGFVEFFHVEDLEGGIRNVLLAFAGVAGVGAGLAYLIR

[8] = target: Cytochrome P450 2C19 (Homo sapiens, UniProt P33261); experiment: Cytochrome panel assay with activity outcomes. Panel member name: p450-cyp2c19 Compounds with AC50 equal or less than 10 uM are considered active; format: functional; settings: read-out: AC50
Chain of Cytochrome P450 2C19 (P33261 whole entry): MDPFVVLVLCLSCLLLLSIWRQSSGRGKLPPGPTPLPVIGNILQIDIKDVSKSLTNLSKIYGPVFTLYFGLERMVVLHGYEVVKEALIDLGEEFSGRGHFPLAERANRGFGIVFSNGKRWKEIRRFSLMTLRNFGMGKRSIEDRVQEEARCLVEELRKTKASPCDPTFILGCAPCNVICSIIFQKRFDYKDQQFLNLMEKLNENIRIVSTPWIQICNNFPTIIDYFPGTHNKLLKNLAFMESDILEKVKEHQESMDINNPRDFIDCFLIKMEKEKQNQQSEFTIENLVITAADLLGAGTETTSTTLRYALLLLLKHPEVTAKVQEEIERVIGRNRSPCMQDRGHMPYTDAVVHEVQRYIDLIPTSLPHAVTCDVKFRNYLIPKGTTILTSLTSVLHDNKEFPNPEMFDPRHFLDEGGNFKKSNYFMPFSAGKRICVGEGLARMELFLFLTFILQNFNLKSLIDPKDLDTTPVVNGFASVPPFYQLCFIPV

[9] = target: T5, Heat shock factor protein 1 (Mus musculus, UniProt P38532); experiment: inhibition of MG132-induced HSE-luciferase signal, confirmation, cell-based, NIH3T3, luminescence, dose retest (AID 2382); format: functional;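 note: NIH3T3 fibroblasts with HSF1-driven luciferase reporter stressed by proteasome inhibitor MG132; luminescence from HSF1-driven luciferase expression after 8 hours of MG132 stress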
T5 sequence (P38532 whole entry): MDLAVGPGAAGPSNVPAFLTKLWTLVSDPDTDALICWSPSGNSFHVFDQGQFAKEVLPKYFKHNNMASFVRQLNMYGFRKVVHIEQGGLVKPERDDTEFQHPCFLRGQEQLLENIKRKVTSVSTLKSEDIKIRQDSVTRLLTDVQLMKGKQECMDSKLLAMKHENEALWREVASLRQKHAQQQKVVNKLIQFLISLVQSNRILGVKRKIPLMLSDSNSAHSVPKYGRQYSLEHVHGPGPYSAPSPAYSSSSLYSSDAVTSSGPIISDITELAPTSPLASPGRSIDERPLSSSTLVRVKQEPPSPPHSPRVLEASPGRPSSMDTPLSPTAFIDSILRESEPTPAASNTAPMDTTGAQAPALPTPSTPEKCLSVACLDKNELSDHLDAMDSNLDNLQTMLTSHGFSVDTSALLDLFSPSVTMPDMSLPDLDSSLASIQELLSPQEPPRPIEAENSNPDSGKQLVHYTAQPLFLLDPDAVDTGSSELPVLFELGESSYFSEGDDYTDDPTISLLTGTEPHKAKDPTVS

[10] = inhibitors of clade B AD8 Env fusion, dose response, cell-based, cherry-pick (AID 652062); format: functional;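 note: luciferase signal from cell-cell fusion driven by HIV-1 clade B AD8 Env; potency is for inhibitors of fusion seen as a drop in luminescence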
[11] = system: BJ; experiment: cells; format: functional, cell-based; settings: Homo sapiens
[12] = cytotoxicity toward DRD oncogenic fibroblasts, dose response, cell-based, non-viral oncogenic, luminescence (AID 1934); format: functional; settings: Homo sapiens
[13] = system: BJ; experiment: cytotoxicity toward BJ-TERT-LT-ST fibroblasts, dose response, cell-based, RAS-independent, luminescence (AID 1935); format: functional; settings: Homo sapiens;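 note: BJ fibroblasts immortalized with TERT plus LT and ST oncogenes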
[14] = system: BJ; experiment: cytotoxicity toward BJ-TERT fibroblasts, dose response, cell-based, RAS-independent, luminescence (AID 1933); format: functional; settings: Homo sapiens
[15] = inhibitors of HIV Env-driven cell fusion, dose response, cherry-pick (AID 652057); format: functional, cell-based
[16] = C. albicans growth with fluconazole, confirmation, fluorescence, retest (AID 2467); format: functional, cell-based
[17] = NIH-3T3 fibroblast cytotoxicity, dose response, cytotoxicity control, cell-based, fluorescence, Alamar Blue, secondary assay (AID 2327); format: functional;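 note: NIH-3T3 mouse fibroblasts cultured with fluconazole at 8 µg/mL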

SMILES: CCC(C(=O)OCC(=O)Nc1ccccc1-c1ccccc1)c1ccccc1 (centres undefined)
- IC50 [1]: 9.96 µM (not active)

SMILES: O=C(NCCNCc1ccccc1)c1ccco1
- IC50 [2]: 9.15 µM (active)

SMILES: O=C(Cc1ccccc1)c1c[nH]c(C(=O)C(Cl)(Cl)Cl)c1
- AC50 [3]: 4.92 µM (active)
- EC50 [4]: 4.99 µM (active)

SMILES: CC1=Nc2ccccc2N=C(NC(=O)CN2CCN(c3ccccc3)CC2)C1c1ccccc1 (centres undefined)
- IC50 [1]: > 50 µM (not active)
- EC50 [5]: 2.06 µM (active)
- EC50 [6]: > 30 µM (not active)

SMILES: CC1=NN(c2ccccc2)C(=O)/C1=C\c1cc(C)n(-c2cccnc2)c1C
- AC50 [3]: 44.8 µM (active)
- EC50 [4]: 88.8 µM (active)

SMILES: O=C(c1ccc2c(c1)OCO2)N1CCN(c2ccc(C(F)(F)F)cn2)CC1
- IC50 [1]: < 0.4 µM (not active)

SMILES: Cc1onc(-c2c(Cl)cccc2Cl)c1C(=O)n1nnc2ccccc21
- AC50 [3]: 16.4 µM (active)
- EC50 [4]: 26.5 µM (active)

SMILES: COc1cc(/C=N/NC(=O)c2ccc([N+](=O)[O-])cc2Cl)cc(Br)c1O
- IC50 [7]: 15.2 µM (not active)

SMILES: C[n+]1cn(CC(O)COCc2ccccc2)c2ccccc21 (centres undefined)
- AC50 [8]: 15.8 µM (inconclusive)
- IC50 [2]: 10.8 µM (active)

SMILES: Cc1ccc(NC2=NC(=O)/C(=C/C=C/c3ccco3)S2)cc1
- IC50 [7]: 8.32 µM (active)

SMILES: COc1cccc2c(C)c(C(=O)O)[nH]c12
- IC50 [7]: 2.81 µM (active)
- EC50 [9]: 5.27 µM (active)

SMILES: CN1CCN(c2ccc([N+](=O)[O-])cc2/C=N/NC(=O)c2cccc([N+](=O)[O-])c2)CC1
- IC50 [7]: 3.57 µM (active)

SMILES: O=C1c2cccc3cc([N+](=O)[O-])cc(c23)C(=O)N1/N=C/c1ccc(O)cc1O
- IC50 [7]: 1.44 µM (active)

SMILES: O=C(CCS(=O)(=O)c1ccc(Br)cc1)NCCC1=CCCCC1
- IC50 [2]: 9.5 µM (active)

SMILES: COc1ccc(N2CCN(C(=O)CCC(=O)c3cc(C)sc3C)CC2)cc1
- IC50 [1]: 30.3 µM (not active)

SMILES: CN(C)CCCNC(=O)[C@H]1[C@H](CO)[C@H]2Cn3c(ccc(C4=CCCC4)c3=O)[C@H]2N1CCC(F)(F)F
- AC50 [10]: 1.09 µM (active)

SMILES: COc1ccccc1-c1cnnc(S)n1
- EC50 [4]: 111 µM (active)

SMILES: COc1cc2c(C#CCO)c(-c3ccc(C#N)cc3)oc(=O)c2cc1OC
- IC50 [2]: 8.45 µM (active)

SMILES: CS(=O)(=O)N(CC(=O)NCCc1ccccc1)c1cccc([N+](=O)[O-])c1
- IC50 [1]: 5.74 µM (not active)

SMILES: O=C(COC(=O)/C=C/c1ccco1)Nc1ccc(F)cc1Cl
- IC50 [2]: 36.6 µM (active)

SMILES: COC(=O)CC1(c2cccc3ccccc23)C(=O)c2ccccc2C1=O
- AC50 [3]: 5.91 µM (active)
- EC50 [4]: 4.46 µM (active)

SMILES: COCCNC(=O)NC(=O)CN1CCCc2ccccc21
- IC50 [1]: < 0.4 µM (not active)

SMILES: O=C(CCl)Nc1ccccc1C(=O)c1ccccc1
- EC50 [11]: > 150 µM (not active)
- EC50 [12]: 35.3 µM (active)
- EC50 [13]: > 150 µM (inconclusive)
- EC50 [9]: > 195 µM (not active)
- EC50 [14]: > 150 µM (not active)

SMILES: O=C(Nc1ccc(Cl)c(Cl)c1)N1N=CCC1c1ccccc1 (centres undefined)
- IC50 [1]: 8.45 µM (not active)

SMILES: Cc1nn(Cc2ccccc2)c2c1C(c1ccc(Cl)cc1)C(C#N)=C(N)O2 (centres undefined)
- AC50 [3]: 6.41 µM (active)
- EC50 [4]: 3.58 µM (active)

SMILES: O=C(CNc1ccc2ccccc2c1)N/N=C/C=C/c1cccc([N+](=O)[O-])c1
- IC50 [7]: 6.79 µM (active)

SMILES: Cc1cc(=O)oc2cc(NC(=O)c3cc(F)ccc3F)ccc12
- IC50 [2]: 6.83 µM (active)

SMILES: O=C(C[C@H]1CC[C@H]2[C@@H](COC[C@H](O)CN2C(=O)Nc2ccc(Cl)c(Cl)c2)O1)NCc1ccncc1
- AC50 [10]: 26.5 µM (active)
- AC50 [15]: 31.5 µM (active)

SMILES: O=C(Nc1ccc(NC(=O)c2cccs2)cc1)c1ccc(Br)o1
- EC50 [16]: 2.22 µM (active)
- IC50 [2]: 7.45 µM (active)
- EC50 [17]: > 160 µM (inconclusive)

SMILES: N#C/C(=C\c1cccnc1)c1nc2ccccc2[nH]1
- EC50 [11]: > 150 µM (not active)
- EC50 [12]: 38 µM (active)
- EC50 [13]: > 75 µM (not active)
- EC50 [14]: 23.5 µM (active)
